Test results reported in US9695155B2, “Herbicidal substituted pyrimidinyloxy benzene compounds” (E. I. DU PONT DE NEMOURS AND COMPANY, priority 2013, dated 2017).

Legend:
velvetleaf [1] = assay: Test A preemergence; format: in vivo, Abutilon theophrasti; conditions: Abutilon theophrasti, pre-emergence, 240 h, read-out: Velvetleaf plant response rating
How it was run: (§1)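 Compounds in non-phytotoxic solvent with surfactant applied as soil spray preemergence, or postemergence to plants 2-10 cm at one- to two-leaf stage, in loam/sand. After approximately 10 days in greenhouse, injury rated visually versus untreated controls, 0 (no effect) to 100 (complete control).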

morningglory [2] = assay: Test A preemergence; format: in vivo, Ipomoea spp.; conditions: Ipomoea, pre-emergence, 240 h, read-out: Morningglory plant response rating
How it was run: as §1

lambsquarters = assay: Test C preemergence; format: in vivo, Chenopodium album; conditions: Chenopodium album, pre-emergence
How it was run: (§2)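 Seeds are planted in blended loam soil and sand and treated preemergence, while seedlings in a peat moss/vermiculite medium receive postemergence sprays at 2 to 18 cm height. All plants stay in the greenhouse for 13 to 15 days before visual comparison with controls on a 0–100 scale.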

giant foxtail = assay: Test A preemergence; format: in vivo, Setaria faberii; conditions: Setaria faberi, pre-emergence, 240 h, read-out: Foxtail, Giant plant response rating
How it was run: as §1

pigweed [3] = assay: Test A postemergence; format: in vivo, Amaranthus retroflexus; conditions: Amaranthus retroflexus, post-emergence
How it was run: as §1

wheat, winter = assay: Test C preemergence; format: in vivo, Triticum aestivum; conditions: Triticum aestivum, pre-emergence
How it was run: as §2

pigweed [4] = assay: Test C postemergence; format: in vivo, Amaranthus retroflexus; conditions: Amaranthus retroflexus, post-emergence
How it was run: as §2

barnyardgrass = assay: Test B flooded paddy test; format: in vivo, Echinochloa crus-galli; conditions: Echinochloa crus-galli; Flood, 250 g ai/ha; 0 to 100 scale where 0 is no effect and 100 is complete control; read-out: Plant response rating, Barnyardgrass
How it was run: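 Seedlings are raised to two leaves, flooded to a depth of 3 cm and dosed by adding the compound to the floodwater. Water level is kept constant, and plants are scored visually versus controls 13–15 days later (0 = no effect, 100 = complete control).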

kochia = assay: Test C postemergence; format: in vivo, Kochia scoparia; conditions: Bassia scoparia, post-emergence
How it was run: as §2

large (Lg) crabgrass = assay: Test A postemergence; format: in vivo, Digitaria sanguinalis; conditions: Digitaria sanguinalis, post-emergence, 240 h
How it was run: as §1

morningglory [5] = assay: Test C postemergence; format: in vivo, Ipomoea coccinea; conditions: Ipomoea, post-emergence
How it was run: as §2

corn = assay: Test A preemergence; format: in vivo, Zea mays; conditions: Zea mays, pre-emergence, 240 h, read-out: Corn plant response rating
How it was run: as §1

Italian ryegrass = assay: Test C postemergence; format: in vivo, Lolium multiflorum; conditions: Lolium multiflorum, post-emergence
How it was run: as §2

velvetleaf [6] = assay: Test A postemergence; format: in vivo, Abutilon theophrasti; conditions: Abutilon theophrasti, post-emergence, 240 h
How it was run: as §1

wheat = assay: Test A postemergence; format: in vivo, Triticum aestivum; conditions: Triticum aestivum, post-emergence, 240 h
How it was run: as §1

[7] = 125 g ai/ha, 0 to 100 scale where 0 is no effect and 100 is complete control
[8] = 500 g ai/ha, 0 to 100 scale, 0 no effect, 100 complete control, approx. 10 days

Structure (SMILES): Clc1cnc(Oc2ccccc2-n2cc(Br)cn2)nc1 [Compound 7, 2-[2-(4-bromo-1H-pyrazol-1-yl)phenoxy]-5-chloropyrimidine]
- pest or weed control at 125 g/ha (velvetleaf [1]; [7]): 100%
- pest or weed control at 500 g/ha (velvetleaf [1]; [8]): 100%
- pest or weed control at 125 g/ha (morningglory [2]; [7]): 20%
- pest or weed control at 500 g/ha (morningglory [2]; [8]): 70%
- pest or weed control at 62 g/ha (lambsquarters; 62 g ai/ha, preemergence, scale 0 (no effect) to 100 (complete control), read-out: Lambsquarters plant response rating): 80%
- pest or weed control at 125 g/ha (lambsquarters; 125 g ai/ha, preemergence, scale 0 (no effect) to 100 (complete control), read-out: Lambsquarters plant response rating): 85%
- pest or weed control at 250 g/ha (lambsquarters; 250 g ai/ha, preemergence, scale 0 (no effect) to 100 (complete control), read-out: Lambsquarters plant response rating): 95%
- pest or weed control at 31 g/ha (lambsquarters; Preemergence, 31 g ai/ha, scale 0 to 100, 0 no effect, 100 complete control, read-out: Plant response rating, Lambsquarters): 80%
- pest or weed control at 125 g/ha (giant foxtail; [7]): 100%
- pest or weed control at 500 g/ha (giant foxtail; [8]): 100%
- pest or weed control at 125 g/ha (pigweed [3]; 125 g ai/ha, 0 to 100 scale where 0 is no effect and 100 is complete control, read-out: Plant response rating, Pigweed): 100%
- pest or weed control at 500 g/ha (pigweed [3]; 240 h, 500 g ai/ha, 0 to 100 scale, 0 no effect, 100 complete control, read-out: Plant response rating Pigweed): 100%
- plant injury at 62 g/ha (wheat, winter; 62 g ai/ha, preemergence, scale 0 (no effect) to 100 (complete control), read-out: Wheat plant response rating): 5%
- plant injury at 125 g/ha (wheat, winter; 125 g ai/ha, preemergence, scale 0 (no effect) to 100 (complete control), read-out: Wheat plant response rating): 10%
- plant injury at 250 g/ha (wheat, winter; 250 g ai/ha, preemergence, scale 0 (no effect) to 100 (complete control), read-out: Wheat plant response rating): 40%
- plant injury at 31 g/ha (wheat, winter; Preemergence, 31 g ai/ha, scale 0 to 100, 0 no effect, 100 complete control, read-out: Plant response rating, Wheat): 0%
- pest or weed control at 125 g/ha (pigweed [4]; 125 g ai/ha, postemergence, read-out: Plant response rating (0 to 100), Pigweed): 100%
- pest or weed control at 250 g/ha (pigweed [4]; 250 g ai/ha, postemergence, read-out: Plant response rating (0 to 100), Pigweed): 100%
- pest or weed control at 31 g/ha (pigweed [4]; Postemergence, 31 g ai/ha, scale 0 to 100 (0 no effect, 100 complete control), 13 to 15 days, read-out: Plant response rating, Pigweed): 100%
- pest or weed control at 62 g/ha (pigweed [4]; Postemergence, 62 g ai/ha, scale 0 to 100 (0 no effect, 100 complete control), read-out: Plant response rating, Pigweed): 100%
- pest or weed control at 250 g/ha (barnyardgrass): 30%
- pest or weed control at 125 g/ha (kochia; 125 g ai/ha, postemergence, read-out: Plant response rating (0 to 100), Kochia): 100%
- pest or weed control at 250 g/ha (kochia; 250 g ai/ha, postemergence, read-out: Plant response rating (0 to 100), Kochia): 100%
- pest or weed control at 31 g/ha (kochia; Postemergence, 31 g ai/ha, scale 0 to 100 (0 no effect, 100 complete control), 13 to 15 days, read-out: Plant response rating, Kochia): 98%
- pest or weed control at 62 g/ha (kochia; Postemergence, 62 g ai/ha, scale 0 to 100 (0 no effect, 100 complete control), read-out: Plant response rating, Kochia): 98%
- pest or weed control at 125 g/ha (large (Lg) crabgrass; 125 g ai/ha, 0 to 100 scale where 0 is no effect and 100 is complete control, read-out: Plant response rating, Crabgrass, Large): 80%
- pest or weed control at 500 g/ha (large (Lg) crabgrass; 500 g ai/ha, 0 to 100 scale, 0 no effect, 100 complete control, read-out: Plant response rating Crabgrass, Large): 100%
- pest or weed control at 125 g/ha (morningglory [5]; 125 g ai/ha, postemergence, read-out: Plant response rating (0 to 100), Morningglory): 95%
- pest or weed control at 31 g/ha (morningglory [5]; Postemergence, 31 g ai/ha, scale 0 to 100 (0 no effect, 100 complete control), 13 to 15 days, read-out: Plant response rating, Morningglory): 75%
- pest or weed control at 62 g/ha (morningglory [5]; Postemergence, 62 g ai/ha, scale 0 to 100 (0 no effect, 100 complete control), read-out: Plant response rating, Morningglory): 80%
- plant injury at 125 g/ha (corn; [7]): 0%
- plant injury at 500 g/ha (corn; [8]): 30%
- pest or weed control at 125 g/ha (Italian ryegrass; 125 g ai/ha, postemergence, read-out: Plant response rating (0 to 100), Ryegrass, Italian): 10%
- pest or weed control at 250 g/ha (Italian ryegrass; 250 g ai/ha, postemergence, read-out: Plant response rating (0 to 100), Ryegrass, Italian): 40%
- pest or weed control at 31 g/ha (Italian ryegrass; Postemergence, 31 g ai/ha, scale 0 to 100 (0 no effect, 100 complete control), 13 to 15 days, read-out: Plant response rating, Ryegrass, Italian): 5%
- pest or weed control at 62 g/ha (Italian ryegrass; Postemergence, 62 g ai/ha, scale 0 to 100 (0 no effect, 100 complete control), read-out: Plant response rating, Ryegrass, Italian): 10%
- pest or weed control at 125 g/ha (velvetleaf [6]; 125 g ai/ha, 0 to 100 scale where 0 is no effect and 100 is complete control, read-out: Plant response rating, Velvetleaf): 100%
- pest or weed control at 500 g/ha (velvetleaf [6]; 500 g ai/ha, 0 to 100 scale, 0 no effect, 100 complete control, read-out: Plant response rating Velvetleaf): 100%
- plant injury at 125 g/ha (wheat; 125 g ai/ha, 0 to 100 scale where 0 is no effect and 100 is complete control, read-out: Plant response rating, Wheat): 30%
- plant injury at 500 g/ha (wheat; 500 g ai/ha, 0 to 100 scale, 0 no effect, 100 complete control, read-out: Plant response rating Wheat): 50%
